# “Also recorded” adds a separate entry of the source.
# Columns and labels:
# [1] = target: ACMSD-1 (Homo sapiens (Human), UniProt Q8TDX5); assay: ACMSD-1 modulation in HEK293T cells transiently expressing ACMSD; type: cell-based; settings: about 50 nM to about 5 uM; stimulated 48 hrs to 72 hrs
# Protocol: HEK293T cells are seeded and transfected to transiently express ACMSD. The cells are then stimulated with different concentrations of Compound 1, and then lysed to measure the ACMSD activity in a spectrophotometrical in vitro assay. The amount of the whole protein content in cell lysates is detected by Bradford analysis and used to get the specificity activity of the enzyme normalized in all samples.
# HEK293T cells (ATCC) were seeded in six-well plates and transfected using Fugene HD to express transiently ACMSD. 24 hrs post transfection, the cells were stimulated for 48 hrs to 72 hrs with different concentrations of Compound 1 and then lysed to measure the ACMSD activity, by measuring the conversion of 30H-Anthranilic Acid into product (i.e. α-amino-beta-carboxymuconate-ε-semialdehyde, ACMS) in a spectrophotometrical in vitro assay. The amount of the whole protein content in cell lysates was detected by Bradford analysis. This value was used to get the specificity activity of the enzyme normalized in all samples (mU/ml or ΔE/Δt/mg of total protein).
# Having determined the optimum stimulation time and transfection protocol cells were stimulated with different concentrations of Compound 1 (about 50 nM to about 5 uM).
# [2] = system: SOD2 activity in AML-12 cells; assay: Modulation of SOD2 activity in AML-12 cells; type: cell-based, mouse; settings: 24 hours
# Protocol: Primary hepatocytes or AML-12 cells are lysed and total protein concentration is determined using the Bradford assay. SOD2 activity is determined at indicated times after treatment with a compound of Formula (I), Formula (Ia), Formula (Ib), Formula (II), or Formula (III), or a pharmaceutically acceptable salt thereof, using a SOD Assay Kit. Absorbance is determined and results are expressed in U/ml/mg of protein according to the standard curve and measured protein concentration. […]
# (§1) Primary hepatocytes or AML-12 cells were then lysed in a 20 mM HEPES buffer (Gibco), pH 7.2, containing 1 mM EGTA (Sigma), 210 mM mannitol (Sigma), and 70 mM sucrose (AMRESCO). Total protein concentration was determined using the Bradford assay (BioRad). SOD-2 activity was determined at indicated times after ACMSD inhibitor treatment by the SOD Assay Kit (Cayman Chemical) according to the manufacturer's instructions. […] Absorbance was determined with a Victor X4 multi-label plate reader (Perkin-Elmer) at 450 nm. Results are expressed in U/ml/mg of protein according to the standard curve and measured protein concentration.
# [3] = system: SOD2 activity in primary murine hepatocytes; assay: Modulation of SOD2 activity in murine primary hepatocytes; type: cell-based, mouse; settings: for SOD2 activity: primary murine hepatocytes, 24 hours
# Protocol: Primary hepatocytes or AML-12 cells are lysed and total protein concentration is determined using the Bradford assay. SOD2 activity is determined at indicated times after treatment with a compound of Formula (I), Formula (Ia), Formula (Ib), Formula (II), or Formula (III), or a pharmaceutically acceptable salt thereof, using a SOD Assay Kit. Absorbance is determined and results are expressed in U/ml/mg of protein according to the standard curve and measured protein concentration.
# Primary hepatocytes were prepared from 8-12-week-old C57BL/6J mice by collagenase perfusion method. Mouse livers were perfused with Hank's balanced salt solution (HBSS, KCl, 5.4 mM; KH2PO4, 0.45 mM; NaCl, 138 mM; NaHCO3, 4.2 mM; Na2HPO4, 0.34 mM; glucose, 5.5 mM; […]; EGTA, 50 mM; CaCl2, 50 mM; pH 7.4). Livers were then washed at a rate of 5 ml/min through the portal vein. After washing, livers were perfused with collagenase (0.025%) solution. Cell viability was assessed by the trypan blue method. Isolated primary hepatocytes were plated with DMEM medium (Gibco) including 10% FCS, 10 units per ml penicillin and HEPES for buffering. The cells were maintained in culture at 37° C. in a humidified atmosphere of 5% CO2/95% air. After 6-8 hrs of attachment, this medium was replaced with media containing different concentrations of an ACMSD inhibitor (i.e., Compound 1 or Compound 17) or with the corresponding concentration of DMSO (as a control). […]
# as §1
# [4] = system: AML-12 cells; assay: RT-qPCR analysis of SIRT1-regulated genes in AML-12 cells; type: cell-based, mouse; settings: 24 hrs
# Protocol: (§2) Cells (AML-12, Hepa-1.6, HEK-293, primary human and murine hepatocytes) are treated with different concentrations of a compound of Formula (I), Formula (Ia), Formula (Ib), Formula (II), or Formula (III), or a pharmaceutically acceptable salt thereof and the gene expression of ACMSD, Pgc1a, Sod1, and Sod2 (MnSOD) is determined using RT-qPCR. Total RNA is extracted from cells and the extracted RNA is treated with DNase and used for reverse transcription (RT).
# (§3) Gene expression of ACMSD and genes known to be regulated by SIRT1, (an enzyme that is strictly NAD^+ dependent) such as Pgc1a, Sod1, Sod2 (MnSOD), were analysed in AML-12 cells, Hepa-1.6 cells and primary murine hepatocytes treated with Compound 1 or 17.
# (§4) Cells (AML-12, Hepa-1.6, HEK-293, primary human and murine hepatocytes) were treated with different concentrations of Compound 1 or Compound 17. Total RNA was extracted from cells using TRIzol (Invitrogen) according to the manufacturer's instructions. The RNA was treated with DNase, and 2 μg of RNA was used for reverse transcription (RT). 50× diluted cDNA was used for RT-quantitative PCR (RT-qPCR) reactions. The RT-qPCR reactions were performed using the Light-Cycler system (Roche Applied Science) and a qPCR Supermix (QIAGEN) with the indicated primers. The average of at least three technical repeats was used for each biological data point.
# [5] = system: Hepa-1.6 cells; assay: RT-qPCR analysis of SIRT1-regulated genes in Hepa-1.6 cells; type: cell-based; settings: 24 hrs
# Protocol: as §2, §3, §4
# [6] = system: AML-12 cells; assay: Cytotoxicity in AML-12 cells (LDH release, ATP level); type: cell-based, mouse; settings: 10 nM to 300 μM, 4 hrs
# Protocol: (§5) HePG2 and AML-12 cells are seeded and a dose-response of the compound is performed at various concentrations. Cells are stimulated and the supernatant is used to perform LDH release as a measure of necrosis while the cells are lysed to detect ATP levels for determining cell viability.
# (§6) Cytotoxicity: 20000 HePG2 and AML-12 cells were seeded in 96 well plate (Viewplate PerkinElmer). Dose-response of the compound in Table 2 was performed using HP D300 digital dispenser, ranging from 10 nM to 300 μM with constant DMSO 1% in medium. Cells were stimulated for 4 hrs at 37° C.; the supernatant was used to perform LDH release (Cytotox-one, Promega) as a measure of necrosis while the cells were lysed to detect ATP level for determining cell viability (Celltiter-glo, Promega) according to manufacturer's instructions.
# [7] = system: HePG2 cells; assay: Cytotoxicity in HePG2 cells (LDH release, ATP level); type: cell-based; settings: 10 nM to 300 μM, 4 hrs
# Protocol: as §5, §6
# [8] = system: FoxO1 phosphorylation at Ser256; assay: FoxO1 phosphorylation levels in AML-12 cells (western blot); type: cell-based, mouse; settings: 24 hours, increasing dose
# Protocol: AML-12 cells are treated with different concentrations of a compound of Formula (I), Formula (Ia), Formula (Ib), Formula (II), or Formula (III), or a pharmaceutically acceptable salt thereof. Cells are then lysed, and analyzed by SDS-PAGE/western blot. Blocking and antibody incubations are then done and each protein present is detected with its specific antibody.
# AML-12 cells were treated with different concentrations of Compound 1 or Compound 17 for 24 hours. Cells were then lysed in lysis buffer (50 mM Tris, 150 mM KCl, EDTA 1 mM, NP40 1%) containing protease and phosphatase inhibitors, and analyzed by SDS-PAGE/western blot. Blocking and antibody incubations were done in 5% milk. Each protein present was detected with its specific antibody. Tubulin antibody was obtained from Sigma Inc, FoxO1 and phopho-FoxO1 (Ser256) antibodies were obtained from Cell Signaling. Antibody detection reactions were developed by enhanced chemiluminescence (Advansta, Calif., USA) using x-ray films.
# [9] = system: murine primary hepatocytes; assay: NAD+ content in murine primary hepatocytes (HPLC, mass-spectrometry); type: cell-based, mouse; settings: 5 nM, 10 nM and 50 nM for 24 hours
# [10] = system: primary mouse hepatocytes; assay: RT-qPCR analysis of SIRT1-regulated genes in primary mouse hepatocytes; type: cell-based; settings: 24 hrs, 5 nM-500 nM range
# Protocol: as §2, §3, §4
# [11] = system: human primary hepatocytes; assay: NAD+ content in human primary hepatocytes by LCMS/MS; type: cell-based; settings: tested at 0.5 μM and 5 μM; compound replaced every 24 hrs
# Protocol: Primary hepatocytes are treated with different concentrations of a compound of Formula (I), Formula (Ia), Formula (Ib), Formula (II), or Formula (III), or a pharmaceutically acceptable salt thereof, or MEHP (control) after seeding. The compound is replaced every 24 hours, and then cells are directly harvested and lysed to detect NAD^+ content through LC MS/MS (liquid chromatography mass spectrometry/mass spectroscopy).
# The NAD^+ concentration or content was determined in human primary hepatocytes treated with Compound 4. Vehicle (NT) was used as a control.
# At least three experiments were run treating primary hepatocytes with different concentrations of Compound 4 (0.5 μM and 5 μM) after 48 hrs from seeding. Compound 4 was replaced every 24 hrs, and then cells were directly harvested and lysed with ACN/H2O (ratio 5:1). LCMS/MS was used to detect and measure NAD^+ concentration/content. […] (FIG. 1)
# The NAD^+ concentration or content was determined in human primary hepatocytes treated with Compound 1 and MEHP, a known ACMSD inhibitor. MEHP was used as a control.
# At least three experiments were run treating primary hepatocytes with different concentrations of Compound 1 (0.5 μM, 5 μM, and 50 μM) after 48 hrs from seeding. Compound 1 was replaced every 24 hrs, and then cells were directly harvested and lysed with ACN/H2O (ratio 5:1). […]
# [12] = system: MDCK cells; assay: Modulation of cisplatin-induced caspase 3/7 activity in MDCK cells; type: cell-based; settings: for EC50: Canis lupus familiaris, MDCK
# Protocol: MDCK cells are cultured in base medium to a final concentration of 10%. Cells are plated into 96 wells and 24 hours after cell plating the medium is changed with fresh medium supplemented with 1% FBS. Cisplatin is then used to induce cell injury. Different concentrations of Formula (I), Formula (Ia), Formula (Ib), Formula (II), or Formula (III), or a pharmaceutically acceptable salt thereof (in DMSO) are added in combination with cisplatin or prior to adding cisplatin. Caspase 3/7 activity (Promega) is determined according to standard procedures using a luminescent signal readout on a plate reader. Each experiment/condition is performed in triplicate. Caspase activity is analyzed as percentage effect normalized to the cisplatin alone and vehicle treated cells.
# An in vitro study was performed to determine the effects of compounds of Formula (I), Formula (Ia), Formula (Ib), Formula (II), or Formula (III), or a pharmaceutically acceptable salt thereof, on Acute Kidney Injury in MDCK cells.
# MDCK cells (MDCK (NBL-2) ATCC® CCL-34™) were cultured in base medium ATCC-formulated Eagle's Minimum Essential Medium, Catalog No. 30-2003 with fetal bovine serum (FBS) to a final concentration of 10%. 10,000 cells were plated into 96 wells and 24 hours after cell plating the medium was changed with fresh medium supplemented with 1% FBS. Cisplatin (50 μM for 16 hrs) was then used to induce cell injury. Different concentrations of Compound 18 (in 1% DMSO) were added in combination with cisplatin (FIG. 1) or 1 hour prior adding cisplatin (FIG. 2).
# Caspase 3/7 activity (Promega) was determined according to standard procedures using a luminescent signal readout on a Victor V plate reader (PerkinElmer). Each experiment/condition was performed in triplicate.
# Caspase activity was analyzed as percentage effect normalized to the cisplatin alone (100%) and vehicle treated cells as 0% of caspase activity. Data were analyzed by GraphPad Software. One-way analysis of variance (Dunnett's Multiple Comparison test) was used for statistical analyses.
# Sequence of ACMSD-1 (Q8TDX5 whole entry): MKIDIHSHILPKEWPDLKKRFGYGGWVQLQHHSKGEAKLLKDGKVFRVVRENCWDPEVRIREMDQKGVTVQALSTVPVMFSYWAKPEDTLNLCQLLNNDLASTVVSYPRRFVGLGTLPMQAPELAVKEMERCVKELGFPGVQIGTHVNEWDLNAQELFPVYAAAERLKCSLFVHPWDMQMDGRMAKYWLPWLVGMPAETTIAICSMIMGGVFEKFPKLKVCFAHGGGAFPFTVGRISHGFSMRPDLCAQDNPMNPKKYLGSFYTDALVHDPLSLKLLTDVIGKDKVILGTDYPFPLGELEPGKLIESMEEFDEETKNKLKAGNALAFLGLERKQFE
structure (smiles),measurement,setting,value
N#Cc1c(-c2ccccc2)nc(SCc2cccc(C(=O)O)c2)[nH]c1=O [Compound 1],ACMSD-1 activity in over-expression cell-based assay,[1],"inhibited ACMSD-1 activity, in a dose dependent manner"
same,SOD2 activity,[2],induced in a dose-dependent manner
same,SOD2 activity,[3],induced in a dose-dependent manner
same,Sod2 mRNA levels,[4],increased in a dose-dependent manner
same,Sod2 mRNA levels,[5],increased in a dose-dependent manner
same,Cytotoxicity AML-12,[6],Not Toxic
same,Cytotoxicity Hep-G2,[7],Not Toxic
same,FoxO1 phosphorylation at Ser256,[8],decrease
N#Cc1c(-c2nccs2)nc(SCc2cccc(C(=O)O)c2)[nH]c1=O [Compound 5],Cytotoxicity AML-12,[6],Not Toxic
same,Cytotoxicity Hep-G2,[7],Not Toxic
N#Cc1c(-c2cccs2)nc(SCc2cccc(-c3nn[nH]n3)c2)[nH]c1=O [Compound 17],SOD2 activity,[2],induced in a dose-dependent manner
same,dose at which effect on SOD2 activity reached a maximum,[3]; primary hepatocytes,about 50 nM
same,SOD2 activity,[3],induced in a dose-dependent manner
same,intra-cellular NAD+ levels,[9],significant and dose-dependent increase; also recorded: increase in NAD^+ levels
same,Pgc1a mRNA expression level,[10],dose-dependent increase
same,Sod2 (MnSOD) mRNA expression level,[10],dose-dependent increase
same,Cytotoxicity AML-12,[6],Not Toxic
same,Cytotoxicity Hep-G2,[7],Not Toxic
same,FoxO1 phosphorylation at Ser256,[8],decrease
N#Cc1c(-c2cccs2)nc(SCc2cccc(-c3noc(=O)[nH]3)c2)[nH]c1=O [Compound 19],Cytotoxicity AML-12,[6],Not Toxic
same,Cytotoxicity Hep-G2,[7],Not Toxic
N#Cc1c(-c2cccs2)nc(SCc2cccc(C(=O)O)c2)[nH]c1=O [Compound 4],"concentration at which ACMSD-1 enzyme is inhibited (NAD+ content, FIG. 1)",[11],≤ 0.5 µM
same,Cytotoxicity AML-12,[6],Not Toxic
same,Cytotoxicity Hep-G2,[7],Not Toxic
O=C(O)c1cccc(CSc2nc(-c3ccccc3)c(Br)c(=O)[nH]2)c1 [Compound 11],Cytotoxicity AML-12,[6],Not Toxic
same,Cytotoxicity Hep-G2,[7],Not Toxic
N#Cc1c(-c2ccc(Cl)cc2)nc(SCc2ccc(C(=O)O)cc2)[nH]c1=O [Compound 8],Cytotoxicity AML-12,[6],Not Toxic
same,Cytotoxicity Hep-G2,[7],Not Toxic
N#Cc1c(-c2cccs2)nc(SCc2cccc(CC(=O)O)c2)[nH]c1=O [Compound 18],EC50,"[12]; 1 h, added one hour prior to cisplatin, 1 μM to 125 μM",30 µM
same,EC50,"[12]; added in combination with cisplatin, 0.01 μM to 100 μM",70 µM
same,activity of caspase 3/7 induced by cisplatin,"[12]; MDCK cells, cisplatin 50 μM for 16 hrs","decreases, in significant manner"
